Data: PubChem BioAssay (NCI)
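Each compound was tested at five concentrations against cells in 96-well plates for 48 hours. GI50 marks 50% less growth. TGI marks complete inhibition of growth.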

Legend:
Test in all cases: NCI anticancer screen, dose series, 48 h
A549 NSCLC = system: A549 NSCLC
NCI/ADR-RES ovarian = system: NCI/ADR-RES ovarian
SNB-75 CNS = system: SNB-75 CNS
HCC-2998 colon = system: HCC-2998 colon
CAKI-1 renal = system: CAKI-1 renal
UACC-257 melanoma = system: UACC-257 melanoma
HOP-62 NSCLC = system: HOP-62 NSCLC
PC-3 prostate = system: PC-3 prostate
T-47D breast = system: T-47D breast
LOX IMVI melanoma = system: LOX IMVI melanoma

For `CCN1CCC(Nc2ccnc3cc(Cl)ccc23)CC1`, the GI50 (A549 NSCLC) was 33.9 µM, the TGI (A549 NSCLC) was > 100 µM and the GI50 (NCI/ADR-RES ovarian) was 44.8 µM. For the same molecule, the TGI (NCI/ADR-RES ovarian) was > 100 µM, the GI50 (SNB-75 CNS) was 18.4 µM and the TGI (SNB-75 CNS) was 74.8 µM. The GI50 (HCC-2998 colon) was 33.3 µM, the TGI (HCC-2998 colon) was > 100 µM and the GI50 (CAKI-1 renal) was 21.5 µM. The TGI (CAKI-1 renal) was > 100 µM, the GI50 (UACC-257 melanoma) was 17 µM and the TGI (UACC-257 melanoma) was 32.3 µM. The GI50 (HOP-62 NSCLC) was 21.9 µM, the TGI (HOP-62 NSCLC) was > 100 µM and the GI50 (PC-3 prostate) was 24.9 µM. For the same molecule, the TGI (PC-3 prostate) was > 100 µM, the GI50 (T-47D breast) was 31.3 µM and the TGI (T-47D breast) was > 100 µM. For the same molecule, the GI50 (LOX IMVI melanoma) was 26.1 µM and the TGI (LOX IMVI melanoma) was > 100 µM.
For `CC(=O)O[C@H]([C@H](OC(C)=O)[C@H](C)OC(C)=O)[C@@H](/C=C/[C@@H]1CC=CC(=O)O1)OC(C)=O`, the GI50 (A549 NSCLC) was > 100 µM, the TGI (A549 NSCLC) was > 100 µM and the GI50 (NCI/ADR-RES ovarian) was > 100 µM. For the same molecule, the TGI (NCI/ADR-RES ovarian) was > 100 µM, the GI50 (SNB-75 CNS) was 30.2 µM and the TGI (SNB-75 CNS) was 69.6 µM. For the same molecule, the GI50 (HCC-2998 colon) was 29 µM, the TGI (HCC-2998 colon) was 77.2 µM and the GI50 (CAKI-1 renal) was 29.8 µM. The TGI (CAKI-1 renal) was 83.6 µM, the GI50 (UACC-257 melanoma) was > 100 µM and the TGI (UACC-257 melanoma) was > 100 µM. For the same molecule, the GI50 (HOP-62 NSCLC) was 57.6 µM, the TGI (HOP-62 NSCLC) was > 100 µM and the GI50 (PC-3 prostate) was 13.9 µM. The TGI (PC-3 prostate) was > 100 µM, the GI50 (T-47D breast) was 27.4 µM and the TGI (T-47D breast) was > 100 µM. The GI50 (LOX IMVI melanoma) was 57.1 µM and the TGI (LOX IMVI melanoma) was > 100 µM.
For `CCCCCCCCCCCCCCCCCc1nccn1CCOCCO`, the GI50 (A549 NSCLC) was 4.88 µg/mL, the TGI (A549 NSCLC) was 10.2 µg/mL and the GI50 (NCI/ADR-RES ovarian) was 20.4 µg/mL. It also gave a TGI (NCI/ADR-RES ovarian) of 37.5 µg/mL, a GI50 (SNB-75 CNS) of 4.88 µg/mL and a TGI (SNB-75 CNS) of 9.7 µg/mL. For the same molecule, the GI50 (HCC-2998 colon) was 5.76 µg/mL, the TGI (HCC-2998 colon) was 11.1 µg/mL and the GI50 (CAKI-1 renal) was 6.3 µg/mL. The TGI (CAKI-1 renal) was 13.1 µg/mL, the GI50 (UACC-257 melanoma) was 5.49 µg/mL and the TGI (UACC-257 melanoma) was 11 µg/mL. It also gave a GI50 (HOP-62 NSCLC) of 5.37 µg/mL, a TGI (HOP-62 NSCLC) of 10.8 µg/mL and a GI50 (PC-3 prostate) of 4.9 µg/mL. It also gave a TGI (PC-3 prostate) of 10.7 µg/mL, a GI50 (T-47D breast) of 2.99 µg/mL and a TGI (T-47D breast) of 8.99 µg/mL. The GI50 (LOX IMVI melanoma) was 5.11 µg/mL and the TGI (LOX IMVI melanoma) was 10.4 µg/mL.
With `CC(C)N1CCN(c2ccncc2S(=O)(=O)N2CCCCC2)CC1` the TGI (A549 NSCLC) was > 100 µM, the TGI (NCI/ADR-RES ovarian) was > 100 µM and the TGI (SNB-75 CNS) was > 100 µM. For the same molecule, the TGI (HCC-2998 colon) was > 100 µM, the TGI (CAKI-1 renal) was > 100 µM and the TGI (UACC-257 melanoma) was > 100 µM. The TGI (HOP-62 NSCLC) was > 100 µM, the TGI (PC-3 prostate) was > 100 µM and the TGI (T-47D breast) was > 100 µM. For the same molecule, the TGI (LOX IMVI melanoma) was > 100 µM.
With `O=C(CC1(O)C(=O)N(Cc2ccccc2)c2ccc(Cl)cc21)c1ccc(C(=O)NCC2CCC3(CC2)OOC2(CCCCC2)OO3)cc1` (stereo not given) the GI50 (A549 NSCLC) was 0.215 µM, the TGI (A549 NSCLC) was 0.456 µM and the GI50 (NCI/ADR-RES ovarian) was 0.271 µM. It also gave a TGI (NCI/ADR-RES ovarian) of 0.833 µM, a GI50 (SNB-75 CNS) of 1.35 µM and a TGI (SNB-75 CNS) of 3.39 µM. For the same molecule, the GI50 (HCC-2998 colon) was 1.31 µM, the TGI (HCC-2998 colon) was 3.02 µM and the GI50 (CAKI-1 renal) was 0.418 µM. For the same molecule, the TGI (CAKI-1 renal) was 0.864 µM, the GI50 (UACC-257 melanoma) was 8.61 µM and the TGI (UACC-257 melanoma) was > 100 µM. It also gave a GI50 (HOP-62 NSCLC) of 0.189 µM, a TGI (HOP-62 NSCLC) of 0.39 µM and a GI50 (PC-3 prostate) of 1.33 µM. The TGI (PC-3 prostate) was 9.11 µM, the GI50 (T-47D breast) was 0.653 µM and the TGI (T-47D breast) was 3.38 µM. For the same molecule, the GI50 (LOX IMVI melanoma) was 0.0573 µM and the TGI (LOX IMVI melanoma) was 0.197 µM.
Work on `Oc1ccc(Nc2ccc3ccccc3c2)cc1` yielded a GI50 (A549 NSCLC) of 4.84 µM, a TGI (A549 NSCLC) of 27 µM and a GI50 (NCI/ADR-RES ovarian) of 4.4 µM. It also gave a TGI (NCI/ADR-RES ovarian) of 67 µM, a GI50 (SNB-75 CNS) of 2.78 µM and a TGI (SNB-75 CNS) of 35.9 µM. The GI50 (HCC-2998 colon) was 4.29 µM, the TGI (HCC-2998 colon) was 17.8 µM and the GI50 (CAKI-1 renal) was 1.52 µM. The TGI (CAKI-1 renal) was 5.93 µM, the GI50 (UACC-257 melanoma) was 4.86 µM and the TGI (UACC-257 melanoma) was 34.3 µM. The GI50 (HOP-62 NSCLC) was 10.4 µM, the TGI (HOP-62 NSCLC) was 41.5 µM and the GI50 (PC-3 prostate) was 4.41 µM. For the same molecule, the TGI (PC-3 prostate) was 68.2 µM, the GI50 (T-47D breast) was 7.1 µM and the TGI (T-47D breast) was 25.7 µM. For the same molecule, the GI50 (LOX IMVI melanoma) was 8.25 µM and the TGI (LOX IMVI melanoma) was 21.9 µM.
For `O=C(CCl)NCCNc1nccc(Nc2ccc(S(=O)(=O)Nc3ccccn3)cc2)n1`, the GI50 (A549 NSCLC) was 3.4 µM, the TGI (A549 NSCLC) was 13 µM and the GI50 (NCI/ADR-RES ovarian) was 2.96 µM. It also gave a TGI (NCI/ADR-RES ovarian) of 83.2 µM, a GI50 (SNB-75 CNS) of 2.84 µM and a TGI (SNB-75 CNS) of 13.3 µM. The GI50 (HCC-2998 colon) was 4.8 µM, the TGI (HCC-2998 colon) was 20.5 µM and the GI50 (CAKI-1 renal) was 2.31 µM. For the same molecule, the TGI (CAKI-1 renal) was 10.4 µM, the GI50 (UACC-257 melanoma) was 2.54 µM and the TGI (UACC-257 melanoma) was 14.4 µM. It also gave a GI50 (HOP-62 NSCLC) of 2.17 µM, a TGI (HOP-62 NSCLC) of 5.46 µM and a GI50 (PC-3 prostate) of 2.5 µM. For the same molecule, the TGI (PC-3 prostate) was 7.45 µM, the GI50 (T-47D breast) was 1.9 µM and the TGI (T-47D breast) was 8.33 µM. For the same molecule, the GI50 (LOX IMVI melanoma) was 1.75 µM and the TGI (LOX IMVI melanoma) was 4.12 µM.
